Key:
H460 cells = assay: Induction of apoptosis in H460 (Hoechst 33342, TUNEL, TdT FACS); type: cell-based, human
Protocol: Cells were seeded onto chamber slides and treated with various reagents, after which cell monolayers were washed twice with ice-cold PBS (pH 7.4). Thereafter, cells were fixed for 5 min at 20° C. in 10% formalin. The washing step with PBS was then repeated once. To stain the nuclei, the cells were incubated for 10 min with 10 μg/ml of Hoechst 33342 and then washed with PBS. The coverslips with the stained cells were mounted in 80% glycerol in PBS containing 1 mg/ml P-phenylenediamine and examined with a Nikon epifluorescence microscope.
Apoptotic assay was done using M30 CytoDEATH apoptotic cell death assay kit (Boehringer Mannnheim). Cells were grown on chamber slides, control and benzimidazole treated cells were stained with Mouse monoclonal antibody (clone M30) as per manufacturer's instructions. […] Flow cytometry was carried out in a fluorescence-activated cell sorter (Epics Elite; Coulter, Inc., Hialeah, Fla.).
The inventors tested the effect of BZ treatment on the human NSCLC cell line H460. […] Chromatin condensation was noted under a fluorescence microscope at 24 h after treatment, by staining the nuclei with Hoechst 33342 fluorescent dye. […] Gross morphological changes associated with a loss of viability were observed by 24 hr post-treatment, whereas signs of apoptosis, detected by DNA staining and TUNEL assays, became apparent by 24 hr after drug treatment.

p53 protein = assay: p53 induction, immunoblot analysis of nuclear extracts; type: cell-based, human; details: H460; 0.05 μg/ml, exposure 1 to 24 hr
Protocol: Cells were grown in 6-cm dishes, cultured, and treated as described above. To prepare the whole-cell lysates, the medium was removed and cells were washed twice with ice-cold Tris-buffered saline (TBS) (150 mM NaCl, 10 mM Tris; pH 7.6) and lysed with 0.5 ml of lysis buffer (10 mM Tris, 150 mM NaCl, 1% Triton X-100, 5 mM EDTA, 25 mM glycerphosphate, 1 mM phenylmethylsulphonyl fluoride (PMSF), 2 mM benzamidine, […], and 1 mM sodium orthovanadate) for 15 min. The lysed cells were then transferred to 1.5 ml microtubes, centrifuged at 15,000×g for 10 min at 4° C., and the supernatants collected mixed with Laemmli's sample buffer and subjected to western blot analysis as described elsewhere (Nare et al., 1994). Blots were probed with anti-p53 monoclonal antibody Bp53-12 (Santa Cruz Biotechnology, Inc.) and the immunocomplex was detected by the Enhanced Chemiluminescence kit according to the manufacturer's directions (Amersham).
Cell extracts were prepared from H460 cells exposed to 0.05 μg/ml FZ or MZ for various durations (1 to 24 hr). The effect of FZ and MZ on the nuclear accumulation of p53 appeared to be gradual and was not significant within the first hour of exposure. […] The appearance of p53 in response to drug treatment also coincided with the initiation of apoptosis, which was detectable by 24 hr, as well as shown earlier by TdT FACS analysis. […] Total RNA was extracted and […] was used for the analysis. p53 protein was detected by immunoblot analysis.

Saos-2 = assay: Cell viability, trypan blue cell count assay; type: cell-based; details: Homo sapiens, Saos-2 (osteosarcoma, p53 deleted), 100% = untreated cells
H460 = assay: Proliferation assay, 50% growth inhibitory concentration; type: cell-based; details: Homo sapiens, NCI-H460, 24 h; H460, p53 positive; inhibit growth by 50% after 1 day of exposure
Protocol: (§1) All cell lines were grown in RPMI 1640 medium supplemented with 5% fetal bovine serum and 5% CO2. All experiments were done when the cells were 70% confluent. For cell growth measurements, 5×10^4 cells were plated in each well of six-well plates. Control and BZ-treated (0.05 μg/ml) cells were trypsinized and counted using a hemocytometer. Experiments were done in triplicate and the mean and standard deviation were determined by standard methods.
(§2) Studies to determine the IC50 for fenbendazole and mebendazole were performed on a panel of six different human cancer cell lines: two carrying the wild-type p53 gene and actively expressing the p53 protein, (H460 and A549); one marked by homozymes deletion of the p53 gene and lacking p53 gene expression (H358); two expressing mutant p53 (H322 and H596); and one in which wild-type p53 is inactivated by human papilloma virus E6 protein. […] A dose of 166 nM (˜[…]) was chosen for these studies because it had been shown previously that this concentration was sufficient to induce wild-type p53 after 24 h of treatment.

H358 = assay: as above; type: cell-based; details: Homo sapiens, NCI-H358, 24 h; H358, p53 deleted; after 1 day of exposure
Protocol: as §1, §2

HeLa (p53 inactivated) = assay: as above; type: cell-based; details: Homo sapiens, 24 h, after 1 day of exposure
Protocol: as §1, §2

H322 = assay: as above; type: cell-based; details: Homo sapiens, NCI-H322, 24 h; H322, p53 mutated; after 1 day of exposure
Protocol: as §1, §2

A549 = assay: as above; type: cell-based; details: Homo sapiens, 24 h; A549, p53 positive; after 1 day of exposure
Protocol: as §1, §2

H596 = assay: as above; type: cell-based; details: Homo sapiens, NCI-H596, 24 h; H596, p53 mutated; after 1 day of exposure
Protocol: as §1, §2

Row | SMILES | apoptotic effect on H460 cells (H460 cells) | time at which nuclear accumulation of p53 became significantly detectable (p53 protein) | time at which nuclear accumulation of p53 peaked (p53 protein) [h] | viability at 0.05 µg/mL (Saos-2) [%] | IC50 (H460) [nM] | IC50 (H358) [nM] | IC50 (HeLa (p53 inactivated)) [nM] | IC50 (H322) [nM] | IC50 (A549) [nM] | IC50 (H596) [nM]
1 | COC(=O)Nc1nc2ccc(C(=O)c3ccccc3)cc2[nH]1 [Mebendazole, Methyl 5-benzoylbenzimidazole-2-carbamate] | apoptotic effect | about 16 hr | 24 | 65.4 ± 10.1 | 106 | 893 | 400 | 871 | 130 | 601
2 | COC(=O)Nc1nc2ccc(Sc3ccccc3)cc2[nH]1 [Fenbendazole, methy 5-(phenylthio)-2-benzimidazole-2-carbamate] | apoptotic effect | about 16 hr | 24 | 76.5 ± 5.9 | 152 | 654 | 853 | 816 | 123 | 643

Source: patent publication US7423015B1, “Antihelminthic drugs as a treatment for hyperproliferative diseases” (Board of Regents, The University of Texas System, priority 2001, dated 2008)
